Source: patent US10633353B2, “Polymerizable compound, composition, polymer, optically anisotropic body, liquid crystal display element, and organic EL display” (DIC Corporation, priority 2014, dated 2020)

Assay: Preservation stability of the coating liquid
Type: physicochemical
Details: coating liquid stored for 2 months shielded from light at 0° C.; appearance and GPC
Method: The preservation stability of the coating liquid was evaluated on a scale of A to E on the basis of the state of the coating liquid that was stored for 2 months under a condition where the coating liquid was shielded from light at 0° C.
A: No visual change in the appearance of the coating liquid was confirmed. A GPC analysis of the coating liquid confirmed that the change in the composition of the coating liquid was 1% or less.
B: No visual change in the appearance of the coating liquid was confirmed. A GPC analysis of the coating liquid confirmed that the change in the composition of the coating liquid was 2% or less.
C: A visual change in the appearance of the coating liquid was confirmed; a trace amount of insoluble components were confirmed, or a GPC analysis of the coating liquid confirmed that the change in the composition of the coating liquid was 3% or less.
D: A visual change in the appearance of the coating liquid was confirmed; insoluble components were confirmed. The ratio of the weight of the insoluble components to the total solid content was 5% or less.
E: A large amount of insoluble components were visually confirmed. The ratio of the weight of the insoluble components to the total solid content was 5% or more.

| Structure (SMILES) | Preservation stability |
| --- | --- |
| C=CC(=O)OCCCCCCOc1ccc(OC(=O)C2CCC(COc3ccc(OCC4CCC(C(=O)Oc5ccc(OCCCCCCOC(=O)C=C)cc5)CC4)c(/C=N/N(CCOCCOC)c4nc5ccccc5s4)c3)CC2)cc1 (stereo not shown) [1-cmn-91] | A (No visual change in the appearance of the coating liquid was confirmed. A GPC analysis of the coating liquid confirmed that the change in the composition of the coating liquid was 1% or less.) |
| C=CC(=O)OCCCOc1ccc(OC(=O)C2CCC(COc3ccc(OCC4CCC(C(=O)Oc5ccc(OCCCOC(=O)C=C)cc5)CC4)c(/C=N/N(CCOCCOC)c4nc5ccccc5s4)c3)CC2)cc1 (stereo not shown) [1-cmn-92] | A (No visual change in the appearance of the coating liquid was confirmed. A GPC analysis of the coating liquid confirmed that the change in the composition of the coating liquid was 1% or less.) |
| C=CC(=O)OCCCCCCOc1ccc(OC(=O)C2CCC(COc3ccc(OCC4CCC(C(=O)Oc5ccc(OCCCCCCOC(=O)C=C)cc5)CC4)c(/C=N/N(CCOC(=O)C=C)c4nc5ccccc5s4)c3)CC2)cc1 (stereo not shown) [1-cmn-93] | A (No visual change in the appearance of the coating liquid was confirmed. A GPC analysis of the coating liquid confirmed that the change in the composition of the coating liquid was 1% or less.) |
| C=CC(=O)OCCCCCCOc1ccc(OC(=O)C2CCC(COc3ccc(OCC4CCC(C(=O)Oc5ccc(OCCCCCCOC(=O)C=C)cc5)CC4)c(/C=N/N(CCOCCOCCOC(=O)C=C)c4nc5ccccc5s4)c3)CC2)cc1 (stereo not shown) [1-cmn-94] | A (No visual change in the appearance of the coating liquid was confirmed. A GPC analysis of the coating liquid confirmed that the change in the composition of the coating liquid was 1% or less.) |
| C=CC(=O)OCCCOc1ccc(OC(=O)C2CCC(COc3ccc(OCC4CCC(C(=O)Oc5ccc(OCCCOC(=O)C=C)cc5)CC4)c(/C=N/N(C(=O)C=C)c4nc5ccccc5s4)c3)CC2)cc1 (stereo not shown) [1-cmn-107] | A (No visual change in the appearance of the coating liquid was confirmed. A GPC analysis of the coating liquid confirmed that the change in the composition of the coating liquid was 1% or less.) |
| C=CC(=O)OCCCCCCOc1ccc(OC(=O)C2CCC(COc3ccc(OCC4CCC(C(=O)Oc5ccc(OCCCCCCOC(=O)C=C)cc5)CC4)c(/C=N/N(C(=O)C=C)c4nc5ccccc5s4)c3)CC2)cc1 (stereo not shown) [1-cmn-108] | A (No visual change in the appearance of the coating liquid was confirmed. A GPC analysis of the coating liquid confirmed that the change in the composition of the coating liquid was 1% or less.) |
| C=CC(=O)OCCCCCCOc1ccc(C(=O)Oc2ccc(OC(=O)c3ccc(OCCCCCCOC(=O)C=C)cc3)c(/C=N/N(CCCCCC)c3nc4ccccc4s3)c2)cc1 [1-cn-83] | A (No visual change in the appearance of the coating liquid was confirmed. A GPC analysis of the coating liquid confirmed that the change in the composition of the coating liquid was 1% or less.) |
| C=CC(=O)OCCCOc1ccc(C(=O)Oc2ccc(OCCCOC(=O)C=C)cc2/C=N/Nc2nc3ccccc3s2)cc1 [1-e-69] | A (No visual change in the appearance of the coating liquid was confirmed. A GPC analysis of the coating liquid confirmed that the change in the composition of the coating liquid was 1% or less.) |
| C=CC(=O)OCCCCCCOc1ccc(C(=O)Oc2ccc(OCCCCCCOC(=O)C=C)cc2/C=N/Nc2nc3ccccc3s2)cc1 [1-e-70] | A (No visual change in the appearance of the coating liquid was confirmed. A GPC analysis of the coating liquid confirmed that the change in the composition of the coating liquid was 1% or less.) |
| C=CC(=O)OCCCCCCOc1ccc(C(=O)Oc2ccc3cc(OCCCCCCOC(=O)C=C)ccc3c2/C=N/Nc2nc3ccccc3s2)cc1 [1-e-73] | A (No visual change in the appearance of the coating liquid was confirmed. A GPC analysis of the coating liquid confirmed that the change in the composition of the coating liquid was 1% or less.) |
| C=CC(=O)OCCCOc1ccc(C(=O)Oc2ccc(C(=O)Oc3ccc(OCCCOC(=O)C=C)cc3/C=N/Nc3nc4ccccc4s3)cc2)cc1 [1-eh-71] | A (No visual change in the appearance of the coating liquid was confirmed. A GPC analysis of the coating liquid confirmed that the change in the composition of the coating liquid was 1% or less.) |
| C=CC(=O)OCCCCCCOc1ccc(C(=O)Oc2ccc(C(=O)Oc3ccc(OCCCCCCOC(=O)C=C)cc3/C=N/Nc3nc4ccccc4s3)cc2)cc1 [1-eh-72] | A (No visual change in the appearance of the coating liquid was confirmed. A GPC analysis of the coating liquid confirmed that the change in the composition of the coating liquid was 1% or less.) |
| C=CC(=O)OCCCOc1ccc(C(=O)Oc2ccc3cc(C(=O)Oc4ccc(OCCCOC(=O)C=C)cc4/C=N/Nc4nc5ccccc5s4)ccc3c2)cc1 [1-eh-74] | A (No visual change in the appearance of the coating liquid was confirmed. A GPC analysis of the coating liquid confirmed that the change in the composition of the coating liquid was 1% or less.) |
| C=CC(=O)OCCCCCCOc1ccc(OC(=O)c2ccc(OC(=O)c3ccc4cc(OCCCCCCOC(=O)C=C)ccc4c3)cc2)c(/C=N/Nc2nc3ccccc3s2)c1 [1-eh-75] | A (No visual change in the appearance of the coating liquid was confirmed. A GPC analysis of the coating liquid confirmed that the change in the composition of the coating liquid was 1% or less.) |
| C=CC(=O)OCCCCOC1CCC(C(=O)Oc2ccc(OC(=O)C3CCC(OCCCCOC(=O)C=C)CC3)c(/C=N/Nc3nc4ccccc4s3)c2)CC1 (stereo not shown) [1-f-18] | A (No visual change in the appearance of the coating liquid was confirmed. A GPC analysis of the coating liquid confirmed that the change in the composition of the coating liquid was 1% or less.) |
| C=CC(=O)OCCCCCCOC1CCC(C(=O)Oc2ccc(OC(=O)C3CCC(OCCCCCCOC(=O)C=C)CC3)c(/C=N/Nc3nc4ccccc4s3)c2)CC1 (stereo not shown) [1-f-19] | A (No visual change in the appearance of the coating liquid was confirmed. A GPC analysis of the coating liquid confirmed that the change in the composition of the coating liquid was 1% or less.) |
| C=CC(=O)OCCCCOC(=O)C1CCC(C(=O)OC2CCC(C(=O)Oc3ccc(OC(=O)C4CCC(OC(=O)C5CCC(C(=O)OCCCCOC(=O)C=C)CC5)CC4)c(/C=N/Nc4nc5ccccc5s4)c3)CC2)CC1 (stereo not shown) [1-f-20] | A (No visual change in the appearance of the coating liquid was confirmed. A GPC analysis of the coating liquid confirmed that the change in the composition of the coating liquid was 1% or less.) |
| C=CC(=O)OCCCCCCOC1CCC(C(=O)Oc2ccc(OC(=O)C3CCC(OCCCCCCOC(=O)C=C)CC3)c(/C=N/N(c3ccccc3)c3ccccc3)c2)CC1 (stereo not shown) [1-f-21] | A (No visual change in the appearance of the coating liquid was confirmed. A GPC analysis of the coating liquid confirmed that the change in the composition of the coating liquid was 1% or less.) |
| C=CC(=O)OCCCCOC(=O)C1CCC(C(=O)OC2CCC(C(=O)Oc3ccc(OC(=O)C4CCC(OC(=O)C5CCC(C(=O)OCCCCOC(=O)C=C)CC5)CC4)c(/C=N/Nc4nc5ccc6ccccc6c5s4)c3)CC2)CC1 (stereo not shown) [1-f-22] | A (No visual change in the appearance of the coating liquid was confirmed. A GPC analysis of the coating liquid confirmed that the change in the composition of the coating liquid was 1% or less.) |
| C=CC(=O)OCCCCOC(=O)C1CCC(OC(=O)C2CCC(C(=O)Oc3ccc(OC(=O)C4CCC(C(=O)OC5CCC(C(=O)OCCCCOC(=O)C=C)CC5)CC4)c(/C=N/Nc4nc5ccccc5s4)c3)CC2)CC1 (stereo not shown) [1-f-95] | A (No visual change in the appearance of the coating liquid was confirmed. A GPC analysis of the coating liquid confirmed that the change in the composition of the coating liquid was 1% or less.) |
| C=CC(=O)OCCCCOC(=O)C1CCC(C(=O)OC2CCC(C(=O)Oc3ccc(OC(=O)C4CCC(OC(=O)C5CCC(C(=O)OCCCCOC(=O)C=C)CC5)CC4)c(/C=N/N(CCCCCC)c4nc5ccccc5s4)c3)CC2)CC1 (stereo not shown) [1-f-97] | A (No visual change in the appearance of the coating liquid was confirmed. A GPC analysis of the coating liquid confirmed that the change in the composition of the coating liquid was 1% or less.) |
| C=CC(=O)OCCCCOC(=O)C1CCC(C(=O)OC2CCC(C(=O)Oc3ccc(OC(=O)C4CCC(OC(=O)C5CCC(C(=O)OCCCCOC(=O)C=C)CC5)CC4)c(/C=N/N(CCCCC)c4nc5ccccc5s4)c3)CC2)CC1 (stereo not shown) [1-f-98] | A (No visual change in the appearance of the coating liquid was confirmed. A GPC analysis of the coating liquid confirmed that the change in the composition of the coating liquid was 1% or less.) |
| C=CC(=O)OCCCCOC(=O)C1CCC(C(=O)OC2CCC(C(=O)Oc3ccc(OC(=O)C4CCC(OC(=O)C5CCC(C(=O)OCCCCOC(=O)C=C)CC5)CC4)c(/C=N/N(CCCC)c4nc5ccccc5s4)c3)CC2)CC1 (stereo not shown) [1-f-99] | A (No visual change in the appearance of the coating liquid was confirmed. A GPC analysis of the coating liquid confirmed that the change in the composition of the coating liquid was 1% or less.) |
| C=CC(=O)OCCCCOC(=O)C1CCC(C(=O)OC2CCC(C(=O)Oc3ccc(OC(=O)C4CCC(OC(=O)C5CCC(C(=O)OCCCCOC(=O)C=C)CC5)CC4)c(/C=N/N(CCC)c4nc5ccccc5s4)c3)CC2)CC1 (stereo not shown) [1-f-100] | A (No visual change in the appearance of the coating liquid was confirmed. A GPC analysis of the coating liquid confirmed that the change in the composition of the coating liquid was 1% or less.) |
| C=CC(=O)OCCCCOC(=O)C1CCC(C(=O)OC2CCC(C(=O)Oc3ccc(OC(=O)C4CCC(OC(=O)C5CCC(C(=O)OCCCCOC(=O)C=C)CC5)CC4)c(/C=N/N(CCC)c4nc5ccccc5s4)c3)CC2)CC1 (stereo not shown) [1-f-101] | A (No visual change in the appearance of the coating liquid was confirmed. A GPC analysis of the coating liquid confirmed that the change in the composition of the coating liquid was 1% or less.) |
